Measurements from patent publication US20210177828A1, “TAM FAMILY KINASE /AND CSF1R KINASE INHIBITOR AND USE THEREOF” (Nanjing Transthera Biosciences Co., Ltd., priority 2018, published 2021).
pIC50: −log10 of the molar value.

What was measured:
Assay type in all cases: biochemical
[1] = target: T1, Mer (h) (Homo sapiens, UniProt Q12866); assay: Enzymatic activity assay, Mer (h), [γ-33P]-ATP filter assay; conditions: 10 μM ATP, 40 min room temperature; read-out: Inhibitory activity IC50 Mer(h)
T1 sequence (Q12866 21-999): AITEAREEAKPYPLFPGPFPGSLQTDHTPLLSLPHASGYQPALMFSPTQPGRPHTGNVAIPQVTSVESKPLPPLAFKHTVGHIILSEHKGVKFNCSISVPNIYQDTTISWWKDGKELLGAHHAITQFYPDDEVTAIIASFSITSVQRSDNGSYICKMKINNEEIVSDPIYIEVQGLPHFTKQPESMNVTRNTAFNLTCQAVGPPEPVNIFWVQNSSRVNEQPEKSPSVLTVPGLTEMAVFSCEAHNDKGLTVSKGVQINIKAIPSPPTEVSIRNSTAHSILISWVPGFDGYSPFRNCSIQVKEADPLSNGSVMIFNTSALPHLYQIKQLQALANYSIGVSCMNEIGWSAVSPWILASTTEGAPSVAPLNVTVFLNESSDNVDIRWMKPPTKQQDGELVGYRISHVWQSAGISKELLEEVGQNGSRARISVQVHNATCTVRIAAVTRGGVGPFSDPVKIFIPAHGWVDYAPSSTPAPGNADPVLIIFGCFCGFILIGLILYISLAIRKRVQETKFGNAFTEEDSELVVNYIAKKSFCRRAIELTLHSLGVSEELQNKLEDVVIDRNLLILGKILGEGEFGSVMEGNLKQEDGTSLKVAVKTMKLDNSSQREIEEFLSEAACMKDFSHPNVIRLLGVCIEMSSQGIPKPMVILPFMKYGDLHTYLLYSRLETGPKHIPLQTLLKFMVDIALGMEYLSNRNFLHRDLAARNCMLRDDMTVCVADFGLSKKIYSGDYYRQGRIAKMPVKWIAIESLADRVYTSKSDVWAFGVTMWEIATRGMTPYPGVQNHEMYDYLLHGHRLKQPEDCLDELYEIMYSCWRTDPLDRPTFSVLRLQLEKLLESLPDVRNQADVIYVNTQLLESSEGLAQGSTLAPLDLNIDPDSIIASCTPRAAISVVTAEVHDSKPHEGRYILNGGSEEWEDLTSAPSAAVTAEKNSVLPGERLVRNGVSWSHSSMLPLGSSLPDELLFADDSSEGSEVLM
Protocol: (§1) Compounds were each dissolved in 100% DMSO to prepare stock solutions with a maximum concentration of 500 μM.
(§2) Compound working solutions (50×) were prepared by diluting a compound stock solution to a final concentration of 500, 150, 50, 15, 5, 1.5, 0.5, 0.15 and 0.05 μM.
An enzyme solution with a final concentration of 3.1 nM was prepared by dissolving Mer (h) enzyme in a mixture of 8 mM MOPS (pH 7.0), 0.2 mM EDTA, 30 mM NaCl and 250 μM GGMEDIYFEFMGGKKK. A Mg/ATP mixture of 10 mM magnesium acetate and 10 μM [γ-^33P]-ATP was used to activate the enzymatic reaction.
(§3) A compound working solution was added to a 384-well plate, with final concentrations of 10,000, 3,000, 1,000, 300, 100, 30, 10, 3 and 1 nM, and then different enzymatic reaction solutions prepared according to the above conditions were added. The reaction solutions were incubated at room temperature for 40 min, and then 0.5% phosphoric acid solutions were added to terminate the reaction. 10 μL of the reaction solution was added dropwise to P30 filter paper, washed 4 times with a 0.425% phosphoric acid solution and once with methanol, and then placed in a scintillation counter for detection. Gray analysis was performed on the results with Image J software, and IC50 values were calculated with GraphPad 5.0 software.

[2] = target: T2, Axl (h) (Homo sapiens, UniProt P30530); assay: Enzymatic activity assay, Axl (h), [γ-33P]-ATP filter assay; conditions: 10 μM ATP, 40 min room temperature; read-out: Inhibitory activity IC50 Axl(h)
T2 sequence (P30530 26-894): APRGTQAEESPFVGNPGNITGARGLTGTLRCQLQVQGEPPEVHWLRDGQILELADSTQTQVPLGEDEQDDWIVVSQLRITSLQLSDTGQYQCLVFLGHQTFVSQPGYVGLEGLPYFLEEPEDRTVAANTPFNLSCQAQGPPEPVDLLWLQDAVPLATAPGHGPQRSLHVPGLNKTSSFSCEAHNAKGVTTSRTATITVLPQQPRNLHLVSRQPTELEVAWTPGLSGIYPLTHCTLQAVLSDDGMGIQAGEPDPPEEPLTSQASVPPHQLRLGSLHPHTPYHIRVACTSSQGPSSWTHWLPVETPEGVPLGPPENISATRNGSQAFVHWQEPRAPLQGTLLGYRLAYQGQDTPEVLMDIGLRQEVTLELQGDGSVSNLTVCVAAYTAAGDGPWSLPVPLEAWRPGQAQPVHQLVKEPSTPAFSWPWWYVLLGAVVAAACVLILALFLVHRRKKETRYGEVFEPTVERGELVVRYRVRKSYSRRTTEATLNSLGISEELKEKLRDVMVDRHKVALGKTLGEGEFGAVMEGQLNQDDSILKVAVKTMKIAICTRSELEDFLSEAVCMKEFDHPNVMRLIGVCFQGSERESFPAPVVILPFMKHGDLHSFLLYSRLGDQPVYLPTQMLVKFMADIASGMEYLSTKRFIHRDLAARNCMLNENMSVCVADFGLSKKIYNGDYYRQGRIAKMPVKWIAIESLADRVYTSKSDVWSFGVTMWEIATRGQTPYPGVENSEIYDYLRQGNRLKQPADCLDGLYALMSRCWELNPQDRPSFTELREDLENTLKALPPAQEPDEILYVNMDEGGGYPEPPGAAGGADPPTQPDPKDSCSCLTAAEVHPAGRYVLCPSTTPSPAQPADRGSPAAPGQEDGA
Protocol: as §1, §2
An enzyme solution with a final concentration of 1.7 nM was prepared by dissolving Axl (h) enzyme in a mixture of 8 mM MOPS (pH 7.0), 0.2 mM EDTA and 250 μM KKSRGDYMTMQIG. A Mg/ATP mixture of 10 mM magnesium acetate and 10 μM [γ-^33P]-ATP was used to activate the enzymatic reaction.
as §3

[3] = target: CSF1R (h) (Homo sapiens, UniProt P07333); assay: Enzymatic activity assay, CSF1R (h), [γ-33P]-ATP filter assay; conditions: 10 μM ATP, 40 min room temperature; read-out: Inhibitory activity IC50 CSF1R(h)
Protocol: as §1, §2
An enzyme solution with a final concentration of 64 nM was prepared by dissolving CSF1R enzyme in a mixture of 8 mM MOPS (pH 7.0), 0.2 mM EDTA and 250 μM KKSRGDYMTMQIG. A Mg/ATP mixture of 10 mM magnesium acetate and 10 μM [γ-^33P]-ATP was used to activate the enzymatic reaction.
as §3

Chain of CSF1R (h) (P07333 20-972): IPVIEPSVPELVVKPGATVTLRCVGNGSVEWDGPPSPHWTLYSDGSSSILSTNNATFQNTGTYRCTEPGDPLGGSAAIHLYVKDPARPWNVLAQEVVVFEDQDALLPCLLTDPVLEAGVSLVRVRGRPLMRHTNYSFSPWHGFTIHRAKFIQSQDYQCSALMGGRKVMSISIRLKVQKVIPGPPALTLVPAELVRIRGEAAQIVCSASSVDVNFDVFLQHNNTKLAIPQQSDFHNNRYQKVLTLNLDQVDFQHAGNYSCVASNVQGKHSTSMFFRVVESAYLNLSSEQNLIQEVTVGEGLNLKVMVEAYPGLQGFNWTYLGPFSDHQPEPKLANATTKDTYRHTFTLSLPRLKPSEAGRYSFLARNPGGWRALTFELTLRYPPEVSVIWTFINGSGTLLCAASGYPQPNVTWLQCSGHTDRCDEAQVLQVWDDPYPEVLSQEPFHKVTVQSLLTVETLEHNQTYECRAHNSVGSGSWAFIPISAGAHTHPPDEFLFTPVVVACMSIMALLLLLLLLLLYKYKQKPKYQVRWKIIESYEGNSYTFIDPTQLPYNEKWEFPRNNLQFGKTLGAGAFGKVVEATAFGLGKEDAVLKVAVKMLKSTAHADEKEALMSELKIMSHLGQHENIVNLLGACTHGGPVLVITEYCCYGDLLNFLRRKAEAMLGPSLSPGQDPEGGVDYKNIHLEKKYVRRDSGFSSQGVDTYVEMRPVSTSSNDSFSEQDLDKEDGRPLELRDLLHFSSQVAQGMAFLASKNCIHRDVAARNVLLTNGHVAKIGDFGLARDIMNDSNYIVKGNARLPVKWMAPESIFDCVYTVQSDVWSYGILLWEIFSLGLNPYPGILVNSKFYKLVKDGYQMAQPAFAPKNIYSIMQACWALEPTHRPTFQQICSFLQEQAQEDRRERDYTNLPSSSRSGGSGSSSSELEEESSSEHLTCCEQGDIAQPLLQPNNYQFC

| pIC50 [1] | pIC50 [2] | pIC50 [3] | SMILES |
| --- | --- | --- | --- |
| 8.70 | 8.30 | – | COc1cc2nccc(Oc3ccc(NC(=O)c4cn(CC5CCOCC5)cc(-c5ccc(C)cc5)c4=O)nc3)c2cc1OC [Compound 1, N-(5-((6,7-dimethoxyquinolin-4-yl)oxy)pyridin-2-yl)-4-oxo-1-((tetrahydro-2H-pyran-4-yl)methyl)-5-(p-tolyl)-1,4-dihydropyridin-3-carboxamide] |
| > 9.00 | 8.15 | > 6.70 | COc1cc2nccc(Oc3ccc(NC(=O)c4nn(CC5CCOCC5)cc(-c5ccc(C)cc5)c4=O)nc3)c2cc1OC [Compound 2, N-(5-((6,7-dimethoxyquinolin-4-yl)oxy)pyridin-2-yl)-4-oxo-1-((tetrahydro-2H-pyran-4-yl)methyl)-5-(p-tolyl)-1,4-dihydropyridazin-3-carboxamide] |
| 8.30 | 8.05 | > 6.70 | COc1cc2nccc(Oc3cnc(NC(=O)c4cn(CC5CCOCC5)cc(-c5ccc(C)cc5)c4=O)nc3)c2cc1OC [Compound 4, N-(5-((6,7-dimethoxyquinolin-4-yl)oxy)pyrimidin-2-yl)-4-oxo-1-((tetrahydro-2H-pyran-4-yl)methyl)-5-(p-tolyl)-1,4-dihydropyridin-3-carboxamide] |
| 7.30 | 7.70 | – | COc1cc2nccc(Oc3ccc(NC(=O)c4cn(CC5CCS(=O)(=O)CC5)cc(-c5ccc(C)cc5)c4=O)nc3)c2cc1OC [Compound 7, N-(5-((6,7-dimethoxyquinolin-4-yl)oxy)pyridin-2-yl)-1-((1,1-dioxotetrahydro-2H-thiopyran-4-yl)methyl)-4-oxo-5-(p-tolyl)-1,4-dihydropyridin-3-carboxamide] |
| 7.14 | 8.22 | – | COc1cc2nccc(Oc3ccc(NC(=O)c4cn(CC5CC[S+]([O-])CC5)cc(-c5ccc(C)cc5)c4=O)nc3)c2cc1OC (centres unmarked) [Compound 8, N-(5-((6,7-dimethoxyquinolin-4-yl)oxy)pyridin-2-yl)-1-((1-oxotetrahydro-2H-thiopyran-4-yl)methyl)-4-oxo-5-(p-tolyl)-1,4-dihydropyridin-3-carboxamide] |
| 8.30 | 7.46 | – | COc1cc2nccc(Oc3ccc(NC(=O)c4cn(CC5CCSCC5)cc(-c5ccc(C)cc5)c4=O)nc3)c2cc1OC [Compound 9, N-(5-((6,7-dimethoxyquinolin-4-yl)oxy)pyridin-2-yl)-4-oxo-1-((tetrahydro-2H-thiopyran-4-yl)methyl)-5-(p-tolyl)-1,4-dihydropyridin-3-carboxamide] |
| 8.10 | 7.64 | – | COc1cc2nccc(Oc3ccc(NC(=O)c4cc(-c5ccc(C)cc5)cn(CC5CCOCC5)c4=O)nc3)c2cc1OC [Compound 13, N-(5-((6,7-dimethoxyquinolin-4-yl)oxy)pyridin 2yl)-2-oxo-1-((tetrahydro-2H-pyran-4-yl)methyl)-5-(p-tolyl)-1,2-dihydropyridin-3-carboxamide] |
| 8.52 | 8.40 | > 6.70 | COc1cc2nccc(Oc3cnc(NC(=O)c4nn(CC5CCOCC5)cc(-c5ccc(C)cc5)c4=O)nc3)c2cc1OC [Compound 16, N-(5-((6,7-dimethoxyquinolin-4-yl)oxy)pyrimidin-2-yl)-4-oxo-1-((tetrahydro-2H-pyran-4-yl)methyl)-5-(p-tolyl)-1,4-dihydropyridazin-3-carboxamide] |
| 9.00 | 8.52 | > 6.70 | COc1cc2nccc(Oc3ccc(NC(=O)c4nn(C5CCOCC5)cc(-c5ccc(C)cc5)c4=O)nc3)c2cc1OC [Compound 17, N-(5-((6,7-dimethoxyquinolin-4-yl)oxy)pyridin-2-yl)-4-oxo-1-(tetrahydro-2H-pyran-4-yl)-5-(p-tolyl)-1,4-dihydropyridazin-3-carboxamide] |
| 8.40 | 7.92 | – | COc1cc2nccc(Oc3ccc(NC(=O)c4cn(C5CCOCC5)cc(-c5ccc(C)cc5)c4=O)nc3)c2cc1OC [Compound 19, N-(5-((6,7-dimethoxyquinolin-4-yl)oxy)pyridin-2-yl)-4-oxo-1-(tetrahydro-2H-pyran-4-yl)-5-(p-tolyl)-1,4-dihydropyridin-3-carboxamide] |
| 7.47 | 8.05 | – | COc1cc2nccc(Oc3ccc(NC(=O)c4cn(CC5CCOCC5)cc(-c5ccc(C)cc5)c4=O)nn3)c2cc1OC [Compound 24, N-(6-((6,7-dimethoxyquinolin-4-yl)oxy)pyridazin-3-yl)-4-oxo-1-((tetrahydro-2H-pyran-4-yl)methyl)-5-(p-tolyl)-1,4-dihydropyridin-3-carboxamide] |
| 7.82 | 7.96 | – | COc1cc2nccc(Oc3ccc(NC(=O)c4cn(CC5CCOCC5)c5ccccc5c4=O)nc3)c2cc1OC [Compound 25, N-(5-((6,7-dimethoxyquinolin-4-yl)oxy)pyridin-2-yl)-4-oxo-1-((tetrahydro-2H-pyran-4-yl)methyl)-1,4-dihydroquinolin-3-carboxamide] |
| 7.32 | 7.55 | – | Cc1ccc(-c2cn(C3CCOCC3)nc(C(=O)Nc3ccc(Oc4ccnc5cc6c(cc45)OCO6)cn3)c2=O)cc1 [Compound 29, N-(5-([1,3]dioxolo[4,5-g]quinolin-8-yloxy)pyridin-2-yl)-4-oxo-1-(tetrahydro-2H-pyran-4-yl)-5-(p-tolyl)-1,4-dihydropyridazin-3-carboxamide] |
| 7.70 | 7.41 | – | Cc1ccc(-c2cn(C3CCOCC3)nc(C(=O)Nc3ccc(Oc4ccnc5cc6c(cc45)OCCO6)cn3)c2=O)cc1 [Compound 30, N-(5-((2,3-dihydro-[1,4]dioxino[2,3-g]quinolin-9-yl)oxy)pyridin-2-yl)-4-oxo-1-(tetrahydro-2H-pyran-4-yl)-5-(p-tolyl)-1,4-dihydropyridazin-3-carboxamide] |
